In patent US20260344665A1, “FUNGICIDAL COMPOUND” (priority 2022, published 2026):

What was measured:
[1] = tested on: Blumeria graminis f.sp. tritici; test: Powdery mildew assay in wheat (haustoria formation); format: in vivo; conditions: Blumeria graminis, 48 h, read-out: haustoria formation (% relative to control)
[2] = tested on: ROS production in wheat leaf discs; test: Reactive oxygen species (ROS) burst assay with wheat leaf discs; conditions: INA 100 μM; treated vs. control, 40 minutes
[3] = tested on: Puccinia recondita f. sp. tritici; test: Leaf painting assay in wheat seedling, Puccinia recondita preventive; format: in vivo; conditions: 188.00 ppm, preventive
Procedure: (§1) Wheat seedlings of the variety Riband (for Zymoseptoria tritici trials) or variety Arina (for Puccinia recondite trials) were grown in the glasshouse until 14d after seeding. At this time, such seedlings usually have a first leaf fully emerged (designated L1), a second leaf fully emerged (L2) and a third leaf (L3) that is partially emerged and in the process of development. Using a permanent pen, two dots were applied on the second leaf such as to generate three segments of roughly equal size: Segment A (at the base), segment B (middle part) and segment C (tip of the leaf). A stock solution of the compound of Formula (I) was produced in water and of benzovindiflupyr in DMSO at a concentration of 10,000 ppm. […] The diluted compound was applied to the middle segment of L2 using a conventional cotton stick; the cotton stick was soaked in the diluted compound and rubbed several times on the adaxial leaf surface between the two marks. One day later, the complete plant was inoculated with a fungal spore suspension using a paint brush. The spore suspension was applied until before run-off.
For infection with Puccinia recondita (preventive): The test plants were inoculated by spraying them with a spore suspension one day after application (spore suspension at 80,000 spores per ml in water supplemented with Tween20 at 0.1%). After an incubation period of 1 day at 20 °C and 95% rh, the inoculated test plants were kept at 20 °C and 60% rh in a greenhouse.
(§2) The three segments of the leaf were evaluated individually.

Zymoseptoria tritici = test: Leaf painting assay in wheat seedling, Zymoseptoria tritici preventive; format: in vivo; conditions: Experiment 1; 188.00 ppm; tip segment; preventive
Procedure: as §1
For infection with Zymoseptoria tritici (preventive), the test plants were inoculated by spraying a spore suspension on them one day after application (1.5 Mio spores per ml in water supplemented with 0.01% Tween20). After an incubation period of 4 days at 22 °C/21 °C (day/night) and 95% rh, the inoculated test plants were kept at 22 °C/21 °C (day/night) and 70% rh in a greenhouse.
as §2

Puccinia recondita [4] = test: Mixture with malonomicin, leaf disc, Puccinia recondita curative; format: in vivo; conditions: foliar, 192 h, read-out: control of fungal growth
From the text: (§3) An additional ingredient having pesticidal activity, for instance fungicidal activity may result in an unexpected synergistic activity. […] The action to be expected E for a given active ingredient combination obeys the so-called COLBY formula and can be calculated as follows (COLBY, S. R. “Calculating synergistic and antagonistic responses of herbicide combination”. Weeds, Vol. 15, pages 20-22; 1967): • ppm=milligrams of active ingredient (=a.i.) per liter of spray mixture • X=% action by active ingredient A) using p ppm of active ingredient • Y=% action by active ingredient B) using q ppm of active ingredient.
(§4) According to COLBY, the expected (additive) action of active ingredients A)+B) using p+q ppm of active ingredient is:
(§5) In mathematical terms, synergism corresponds to a positive value for the difference of (O-E). In the case of purely complementary addition of activities (expected activity), said difference (O-E) is zero. A negative value of said difference (O-E) signals a loss of activity compared to the expected activity.
(§6) A stock solution for oligosaccharide compound according to the present invention was produced in water plus 0.025% Tween®20. Malonomicin was produced according to Law et al, 2018 (Nature Catalys is | VOL 1 | DECEMBER 2018 | 977-984). A stock solution of malonomicin was produced in water plus 0.025% Tween®20.
(§7) Assays to test efficacy of mixtures of the compound of Formula (I) in combination with malonomicin on the control of fungal pathogens in a leaf disc assay were designed for two 24 well plates.
(§8) Table 8 and 9: Outline of 24 well testplate (1) and testplate (2) including concentration of compounds sprayed per well. The upper number in the cell indicates the oligosaccharide compound of the present invention concentration (ppm), the lower number malonomicin concentration (ppm). Column (1) holds a dilution series of compound of Formula (I), row (2-D) hold a dilution series of malonomicin. Well 2-D-(1) represents an untreated check. This design was applied for tests including Puccinia recondita (EPPO code: PUCCRE) with preventive and curative spray timing.
(§9) A first set of master plates with 1× concentrated spray solution of the compound of Formula (I) stock diluted in water with concentrations according to Table 8, Table 9, Table 11 and Table 12, respectively, was prepared. Each well contained 0.025% Tween®20. Accordingly, a second set of master plates with 1× concentrated malonomicin stock diluted in water was prepared. Each well of the second set contained 0.025% Tween®20. Leaf segments placed on agar in 24 well plates are sprayed with 8 ul of solution from the master plate containing compound of Formula (I) and the leaf segments were let to dry, followed 2 hours later by 8 ul of solution from the master plate containing malonomicin. After second sprays have dried, leaf segments are infected with fungal spores to obtain a preventive application timing. Alternatively, leaf segments infected one day before spray of the compounds are used, resulting in a curative spray timing. In addition, several plates were produced where leaf segments were sprayed 2× in absence of test compound (with only Tween®20), representing the untreated check samples. For each leaf segment percent leaf coverage of disease symptoms was assessed. Percent leaf coverage reduction relative to the untreated check was calculated. Efficacy of the mixtures was tested in duplicate and on different fungal species. Reported efficacy values are the average of two replicate results.
Puccinia recondita (EPPO Code: PUCCRE) with Curative Spray Timing.
Wheat (cultivar Kanzler) leaf segments are placed on agar in multiwell plates (24-well format). The leaf disks are then inoculated with a spore suspension of the fungus. One day after inoculation the test solution is sprayed (8 ul per well). After appropriate incubation the activity of a compound is assessed 8 dpi (days after inoculation) as curative fungicidal activity

[5] = tested on: Blumeria graminis f.sp. tritici; test: Mixture with malonomicin, leaf disc, Blumeria graminis f.sp. tritici preventive; format: in vivo; conditions: foliar, 168 h, read-out: control of fungal growth
From the text: as §6, §7
(§10) Table 11 and Table 12: Outline of 24 well testplate (3) and testplate (4) including concentration of compounds per well. The upper number in the cell indicates the oligosaccharide compound of the present invention concentration (ppm), the lower number malonomicin concentration (ppm). Column (1) holds a dilution series of compound of Formula (I), row (4-D) hold a dilution series of malonomicin. Well 4-D-(1) represents an untreated check. This design was applied for tests including Blumeria graminis f.sp. tritici (EPPO code: ERYSGT) with preventive spray timing and Parastagonospora nodorum (EPPO code: LEPTNO) with preventive spray timing.
as §9
Blumeria graminis f.sp. tritici (EPPO Code: ERYSGT) with Preventive Spray Timing
(§11) Wheat (cultivar Kanzler) leaf segments are placed on agar in multiwell plates (24-well format) and sprayed with test solutions (8 ul per well). After drying, the leaf disks are inoculated with spores of the fungus. After appropriate incubation the activity of a compound is assessed 7 dpi (days post inoculation) as preventive fungicidal activity.

Puccinia recondita [6] = test: Mixture with malonomicin, leaf disc, Puccinia recondita preventive; format: in vivo
From the text: as §3, §4, §5, §6, §7, §8
as §9, with “In addition, several plates were produced where leaf segments were sprayed 2× in absence of test compound (with only Tween®20), representing the untreated check samples.” left out, “Efficacy of the mixtures was tested in duplicate and on different fungal species. Reported efficacy values are the average of two replicate results.” left out
Wheat (cultivar Kanzler) leaf segments are placed on agar in multiwell plates (24-well format) and sprayed with test solutions (8 ul per well). […] After appropriate incubation the activity of a compound is assessed 8 dpi (days after inoculation) as preventive fungicidal activity.

Parastagonospora nodorum = test: Mixture with malonomicin, leaf disc, Parastagonospora nodorum preventive; format: in vivo
From the text: as §6, §7, §10, §9
Parastagonospora nodorum (EPPO Code: LEPTNO)
as §11, with “a spore suspension” for “spores”, “4” for “7”, “after” for “post”

## O=C(O)c1cc(Cl)nc(Cl)c1 [INA, 2.6-dichloro-isonicotinic acid, reference compound]
[1]
  activity at 100 µM: 27.6%
[2]
  Fold change (peak ROS): 1.8

## Cn1cc(C(=O)Nc2cccc3c2C2CCC3C2=C(Cl)Cl)c(C(F)F)n1 (centres unmarked) [benzovindiflupyr, reference compound]
[3]; Experiment 2, base segment
  % reduction fungal growth: 7%
[3]; Experiment 2, middle segment (treated)
  % reduction fungal growth: 100%
[3]; Experiment 2, tip segment
  % reduction fungal growth: 100%
[3]; Experiment 3, base segment
  % reduction fungal growth: 21%
[3]; Experiment 3, middle segment (treated)
  % reduction fungal growth: 100%
[3]; Experiment 3, tip segment
  % reduction fungal growth: 100%
[3]; Experiment 4, base segment
  % reduction fungal growth: 3%
[3]; Experiment 4, middle segment (treated)
  % reduction fungal growth: 100%
[3]; Experiment 4, tip segment
  % reduction fungal growth: 100%
Zymoseptoria tritici
  % reduction fungal growth: 99%

## NC[C@@H]1NC(=O)C(C(=O)CC(NC(=O)[C@@H](N)CO)(C(=O)O)C(=O)O)=C1O [malonomicin, {[(2S)-2-amino-3-hydroxypropanoyl]amino} {2-[(5S)-5-(aminomethyl)-4-hydroxy-2-oxo-2,5-dihydro-1H-pyrrol-3-yl]-2-oxoethyl} malonic acid, reference compound]
Puccinia recondita [4]; malonomicin 0.74 ppm solo
  inhibition of growth at 0.74 µg/mL: 35%
Puccinia recondita [4]; malonomicin 2.22 ppm solo
  inhibition of growth at 2.22 µg/mL: 70%
Puccinia recondita [4]; malonomicin 6.67 ppm solo
  inhibition of growth at 6.67 µg/mL: 100%
Puccinia recondita [4]; malonomicin 20 ppm solo
  inhibition of growth at 20 µg/mL: 100%
Puccinia recondita [4]; malonomicin 200 ppm solo
  inhibition of growth at 200 µg/mL: 100%
[5]; malonomicin 7.4 ppm solo
  inhibition of growth at 7.4 µg/mL: 0%
[5]; malonomicin 22.2 ppm solo
  inhibition of growth at 22.2 µg/mL: 0%
[5]; malonomicin 66.7 ppm solo
  inhibition of growth at 66.7 µg/mL: 70%
[5]; malonomicin 200 ppm solo
  inhibition of growth at 200 µg/mL: 100%
[5]; malonomicin 600 ppm solo
  inhibition of growth at 600 µg/mL: 75%
Puccinia recondita [6]; malonomicin 0.74 ppm solo
  control of fungal growth: 0%
Puccinia recondita [6]; malonomicin 2.22 ppm solo
  control of fungal growth: 10%
Puccinia recondita [6]; malonomicin 6.67 ppm solo
  control of fungal growth: 80%
Puccinia recondita [6]; malonomicin 20 ppm solo
  control of fungal growth: 100%
Puccinia recondita [6]; malonomicin 200 ppm solo
  control of fungal growth: 100%
Parastagonospora nodorum; malonomicin 7.4 ppm solo
  control of fungal growth: 0%
Parastagonospora nodorum; malonomicin 22.2 ppm solo
  control of fungal growth: 45%
Parastagonospora nodorum; malonomicin 66.7 ppm solo
  control of fungal growth: 50%
Parastagonospora nodorum; malonomicin 200 ppm solo
  control of fungal growth: 90%
Parastagonospora nodorum; malonomicin 600 ppm solo
  control of fungal growth: 95%
